Data reported in PMC9321663, “The DevTox Germ Layer Reporter Platform: An Assay Adaptation of the Human Pluripotent Stem Cell Test” (Toxics, 2022).
pIC50: −log10 of the molar value. Entries after “also recorded” stand apart in the source; their conditions may differ. Where two headings read alike, the source gives them in different places.

Tests used:
[1] = tested on: o/c ratio in H9 embryonic stem cells; conditions: Teratogen Index, o/c ratio; cited from earlier work
[2] = tested on: BRA (mesoderm marker) in RUES2-GLR cells; assay: DevTox GLR-Endo assay: increase in percent BRA-positive cells (AEID 3096, Bra_up); assay type: cell-based, human; conditions: for HIT−CALL: tcpl plot AEID3096, COFF 0.774; for MAX_MEAN: tcpl plot AEID3096, maximum mean response; for MAX_MED: tcpl plot AEID3096, maximum median response
Experimental: (§1) The total test chemical incubation period was 48 h.
(§2) (Supplementary Materials).

[3] = cited from earlier work; for Development Toxicant Classification: Table S2; for Classification: developmental toxicant classification (Teratogen / Non-Teratogen) of reference and training chemicals, ref DOI per chemical: 10.1093/toxsci/kft239, 10.1093/toxsci/kfaa014, 10.1177/026119290203000204, 10.1038/s41598-020-59542-x; for DT Class.: developmental toxicant classification
[4] = tested on: SOX17 in H9 human ESC line; conditions: SOX17 half-maximal inhibition concentration; read-out: hPST IC50; cited from earlier work
[5] = tested on: SOX17 (endoderm marker) in RUES2-GLR cells; assay: DevTox GLR-Endo assay: decrease in percent SOX17-positive cells (AEID 3094, Sox17_dn); conditions: for Hit Call: Table S2, SOX17-positive cells, cutoff 3*bmad; for DevTox ACC: Table S2, percent SOX17-positive cells; for DevTox-GLR Endo ACC: activity concentration at cutoff, SOX17-positive cells; for HIT−CALL: tcpl plot AEID3094, COFF 20.3; for hit call designation (in words): DevTox GLR-Endo prediction against developmental toxicant classification
Outline: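 Readouts are loss of SOX17-positive fraction and reduced cell number in endoderm-differentiating RUES2-GLR cells after 48 h of chemical exposure. Controls: undifferentiated and differentiated cells, 0.2% DMSO, and 1 µM SB431542; at least four biological replicates.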

RUES2-GLR cells [6] = assay: DevTox GLR-Endo assay: decrease in total cell count, cytotoxicity (AEID 3098, CellCount_dn); conditions: for Emax: Homo sapiens, read-out: Cell Count % Max Inhibition
[7] = as above; conditions: human
[8] = tested on: SOX17 (endoderm marker) in RUES2-GLR cells; assay: DevTox GLR-Endo assay: increase in percent SOX17-positive cells (AEID 3093, Sox17_up); assay type: cell-based, human; conditions: for Emax: Homo sapiens; for HIT−CALL: tcpl plot AEID3093, COFF 20.3
Experimental: as §1, §2

[9] = tested on: SOX2 (ectoderm and pluripotency marker) in RUES2-GLR cells; assay: DevTox GLR-Endo assay: increase in percent SOX2-positive cells (AEID 3095, Sox2_up); conditions: for AC50 / Emax: Homo sapiens; for AC50: read-out: ga (winning model); for Emax: read-out: tp (winning model); for MAX_MEAN: tcpl plot AEID3095, maximum mean response; for MAX_MED: tcpl plot AEID3095, maximum median response;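 as to all read-outs here: cells exposed to test chemicals for 48 h in total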
Experimental: RUES2-GLR cells were seeded 24 h prior to differentiation initiation into vitronectin-coated 384-well CellCarrier Ultra plates (10.6 mm^2/well) (Perkin Elmer, Waltham, MA, USA). Vitronectin (0.5 µg/cm^2)-coated plates were prepared and stored at 4 °C, wrapped in parafilm, for less than seven days and incubated at room temperature for one hour prior to cell seeding. […] Cells were dispensed into 20 µL coating solution using a Certus FLEX Micro Dispenser (Fritz Gyger, Gwatt, Switzerland) with a 0.45 µm valve to a final volume of 100 µL and density of 2.8 × 10^3 cells per well.
Following a 24 h post-seeding incubation period (Time = 0 h) (Figure 3A), directed endoderm differentiation was initiated with the PSC Definitive Endoderm Induction kit (Gibco, Waltham, MA, USA). […] A target dilution series (0.002–200 µM) was generated by dispensing variable nanoliter volumes of test chemical and backfilling with a complementary volume of DMSO using Echo Cherry Pick software (v.1.6.2). Wells were backfilled with 50 µL of induction medium using a Certus FLEX Micro Dispenser with 0.45 µm valves. Test compound treatment plates were mixed on a Multi-Microplate Genie mixer at 700 rpm for 10 min and subsequently incubated for two hours in a humidified atmosphere at 37 °C with 5% CO2. Each chemical treatment (0 h–Medium A; 24 h–Medium B) were prepared the day of treatment. At 0 h, cell culture medium was aspirated from the assay plate at a rate of 1 µL/s and 40 µL of Medium A ± test chemical applied using a CyBio FeliX automated liquid handler (Analytik Jena, Jena, Germany). At 24 h, conditioned cell culture medium was aspirated and 40 µL of Medium B ± test chemical was applied. At 48 h, cells were prepared for high-content image acquisition by fixation and nuclear staining. The total test chemical incubation period was 48 h. For fixation, a 4% paraformaldehyde (PFA) solution was achieved by adding 40 µL of 8% PFA directly to cell culture medium using a CyBio FeliX liquid handler. […] Following an additional 30 min incubation period at room temperature, staining solution was aspirated, 50 µL of DPBS was added, and plate sealed with MicroAmp Optical Adhesive Film (Applied Biosystems, Waltham, MA, USA).
Images were acquired within 12 h post-fixation using an Opera Phenix High-Content Screening System (Perkin Elmer, Waltham, MA, USA). […] Cell identification and mean biomarker fluorescent intensities were calculated using Harmony image analysis software (Perkin Elmer, Waltham, MA, USA). Cell nuclei were identified using the object classifying algorithm C of the software with border objects excluded using the “Remove Border Objects” feature. Mean cell biomarker intensity statistics were gathered from each object and exported for further analysis using a custom script in Python version 3.7.4 [61] […] For each plate, pluripotent-negative control wells were used to establish baseline intensity values and a cutoff threshold for determining SOX17 and BRA biomarker-positive cells. Endoderm differentiated positive control wells were used to establish baseline intensity values and a cutoff threshold for SOX2-positive cells. Cells with a mean intensity five times the baseline median absolute deviation (5*bmad) above the median cell intensity for plate-based control population technical replicates were considered positive. Well-based cell counts, reflected by the sum of total counted objects from all fields, were used to calculate the percent responders for each respective biomarker and evaluate cytotoxicity. Well-level results were exported for data modeling in the ToxCast Pipeline.
The ToxCast Pipeline R package (tcpl v.2.0.2) was used to normalize, fit, and qualify concentration-response screening data [63].

H9 ESCs = conditions: global gene expression at 6, 96 and 192 h; cited from earlier work
H9 human ESC line = conditions: cited from earlier work
H9 embryonic stem cells = conditions: concentration at cell viability cutoff; cited from earlier work
RUES2-GLR cells [10] = assay: DMSO tolerance test under directed endoderm differentiation (SOX17-positive cells, cell count); assay type: cell-based, human; conditions: DMSO 0.2%
Experimental: To identify biomarker-positive populations during directed endoderm differentiation, RUES2-GLR cells were evaluated by high-content confocal imaging. […] A qualitative loss of SOX2 expression and increased SOX17 expression were evident, indicating loss in pluripotency and commitment to definitive endoderm, respectively (Figure 2A).

[11] = chemicals common with quickPredict
[12] = Homo sapiens, 48 h, read-out: DevTox-GLR Endo AC50 (µM), SOX17 half-maximal activity concentration, 48 h exposure
[13] = Homo sapiens, read-out: DevTox % Max Inhibition
[14] = Homo sapiens, read-out: MAX_MEAN
[15] = Homo sapiens, read-out: MAX_MED
[16] = Homo sapiens, read-out: ga (winning model), tcpl plot AEID3094, gain parameter of winning curve fit (log concentration, µM axis), hit calls only (converted)
[17] = Homo sapiens, read-out: tp (winning model)
[18] = tcpl plot AEID3093, maximum mean response, read-out: MAX_MEAN
[19] = tcpl plot AEID3093, maximum median response, read-out: MAX_MED
[20] = cytotoxicity half-maximal concentration

## CC1=C(/C=C/C(C)=C/C=C/C(C)=C/C(=O)O)C(C)(C)CCC1
[1]
  quickPredict TI: 0.003 µM
[2]; AEID 3096, 48 h exposure
  increase of BRA protein expression (in words): lack of significant BRA perturbation
[3]
  Development Toxicant Classification: Positive
  Classification: Teratogen
[3]; chemicals common with hPST
  DT Class.: Pos
[3]; [11]
  DT Class.: Pos
[3]; reference chemicals
  Developmental Toxicant Classification: Positive
[4]
  pIC50: 7.15
[5]; Homo sapiens, 48 h
  pIC50: 6.80
[5]; [12]
  AC50: 0.1 µM
[5]; [13]
  Emax: 101%
[5]; [14]
  Emax: 101%
[5]; [15]
  Emax: 101%
[5]; [16]
  AC50: 0.101 µM
[5]; [17]
  Emax: 99.2%
[5]
  Hit Call: Positive
  HIT−CALL: 1
[5]; 48 h exposure
  DevTox ACC: 0.04166 µM
  DevTox-GLR Endo ACC: 0.04 µM
[5]; maximum inhibition of SOX17-positive cells, reference chemical testing, 48 h exposure
  % Max Inhibition: 93%
RUES2-GLR cells [6]
  Emax: 97.6%
RUES2-GLR cells [6]; human, 48 h
  Cell Count ACC: 3.839 µM
  DevTox-GLR Endo CC: 3.84 µM
[7]; RUES2-GLR cells under directed endoderm differentiation
  CC50 at 48 h: 5.53 µM
[8]; [18]
  Emax: 4.3%
[8]; [19]
  Emax: 3.82%
[8]
  HIT−CALL: 0
[9]
  AC50: 87.1 µM
  Emax: 71.4%
  MAX_MEAN: 50.7 Percent Activity
  MAX_MED: 53.1 Percent Activity
H9 ESCs
  toxicological tipping point concentration: 17 ± 11 nM
H9 human ESC line; [20]
  hPST TC50: 33 µM
H9 human ESC line; hPST cytotoxicity
  hPST TC50: 33 µM

## O=c1[nH]cc(F)c(=O)[nH]1 [5-Fluorouracil]
[1]
  quickPredict TI: 2.02 µM
[3]
  Development Toxicant Classification: Positive
  Classification: Teratogen
[3]; chemicals common with hPST
  DT Class.: Pos
[3]; [11]
  DT Class.: Pos
[4]
  pIC50: 6.22
[5]; [12]
  AC50: 8.48 µM
[5]; [13]
  Emax: 102%
[5]; [14]
  Emax: 102%
[5]; [15]
  Emax: 102%
[5]; [16]
  AC50: 8.49 µM
[5]; [17]
  Emax: 102%
[5]
  Hit Call: Positive
  HIT−CALL: 1
[5]; 48 h exposure
  DevTox ACC: 7.071 µM
  DevTox-GLR Endo ACC: 7.07 µM
RUES2-GLR cells [6]
  effect on cell count (in words): significant decreases in cell count
  Emax: 91%
RUES2-GLR cells [6]; human, 48 h
  Cell Count ACC: 4.179 µM
  DevTox-GLR Endo CC: 20.34 µM
[7]
  CC50 at 48 h: 5.72 µM
H9 embryonic stem cells
  quickPredict CV: 1.45 µM
[8]; [18]
  Emax: 3.38%
[8]; [19]
  Emax: 4.48%
[8]
  HIT−CALL: 0
[9]
  AC50: 18.6 µM
  Emax: 5.33%
  MAX_MEAN: 6.64 Percent Activity
  MAX_MED: 5.57 Percent Activity
H9 human ESC line; [20]
  hPST TC50: 0.7 µM
H9 human ESC line; hPST cytotoxicity
  hPST TC50: 0.7 µM

## C[S+](C)[O-] [DMSO, dimethyl sulfoxide]
RUES2-GLR cells [10]
  effect on cell counts (in words): without affecting cell counts
  reduction of the SOX17 population: 19.5%

## NC(=O)NO [Hydroxyurea]
[1]
  quickPredict TI: 74.9 µM
[2]
  HIT−CALL: 0
  MAX_MEAN: 0.733 Percent Activity
  MAX_MED: 0.69 Percent Activity
[3]
  Development Toxicant Classification: Positive
  Classification: Teratogen
[3]; [11]
  DT Class.: Pos
[5]
  hit call designation (in words): false negative
  Hit Call: Negative
  HIT−CALL: 0
[5]; Table S2, percent SOX17-positive cells relative to DMSO
  DevTox % Max Inhibition: 15.8672%
[5]; 48 h exposure
  DevTox ACC: >200 µM
[5]; stratification of training set chemicals
  maximum observed effect level class (% max inhibition): weak (weak (0–20% max inhibition))
[5]; tcpl plot AEID3094, maximum mean response
  MAX_MEAN: 17.2 Percent Activity
[5]; tcpl plot AEID3094, maximum median response
  MAX_MED: 15.9 Percent Activity
RUES2-GLR cells [6]; Table S2, 48 h exposure
  Cell Count ACC: 64.5432 µM
RUES2-GLR cells [6]; Table S2, cell count relative to DMSO
  Cell Count % Max Inhibition: 34.555%
RUES2-GLR cells [6]; concentration at cell count cutoff, 48 h exposure
  DevTox-GLR Endo CC: 64.54 µM
RUES2-GLR cells [6]; training set, 48 h exposure
  effect on cell count (in words): significant cell loss that did not impact SOX17-positive populations; also recorded: significant decreases in cell count
H9 embryonic stem cells
  quickPredict CV: 237 µM
[8]
  HIT−CALL: 0
[8]; tcpl plot AEID3093, maximum mean response
  MAX_MEAN: 13.7 Percent Activity
[8]; tcpl plot AEID3093, maximum median response
  MAX_MED: 16 Percent Activity
[9]
  MAX_MEAN: 1.5 Percent Activity
  MAX_MED: 0.557 Percent Activity

## CN(Cc1cnc2nc(N)nc(N)c2n1)c1ccc(C(=O)N[C@@H](CCC(=O)O)C(=O)O)cc1 [Methotrexate]
[1]
  quickPredict TI: 0.059 µM
[2]
  HIT−CALL: 1
  MAX_MEAN: 1.26 Percent Activity
  MAX_MED: 1.19 Percent Activity
[3]
  Development Toxicant Classification: Positive
  Classification: Teratogen
[3]; [11]
  DT Class.: Pos
[5]
  hit call designation (in words): borderline calls
  Hit Call: Negative
  HIT−CALL: 0
[5]; [13]
  Emax: 24.6%
[5]; [14]
  Emax: 22.4%
[5]; [15]
  Emax: 24.6%
[5]; Homo sapiens, read-out: maximum observed effect level class (% max inhibition)
  Emax: 20 to 80%
[5]; 48 h exposure
  DevTox ACC: >200 µM
RUES2-GLR cells [6]
  effect on cell count (in words): significant decreases in cell count
  Emax: 44.6%
RUES2-GLR cells [6]; human, 48 h
  Cell Count ACC: 0.3474 µM
  DevTox-GLR Endo CC: 0.35 µM
  effect on cell count (in words): significant cell loss that did not impact SOX17-positive populations
H9 embryonic stem cells
  quickPredict CV: 0.062 µM
[8]; [18]
  Emax: 2.23%
[8]; [19]
  Emax: 2.87%
[8]
  HIT−CALL: 0
[9]
  AC50: 0.0525 µM
  Emax: 0.771%
  MAX_MEAN: 0.917 Percent Activity
  MAX_MED: 0.899 Percent Activity

## O=C(O)c1ccccc1O [Salicylic Acid]
[1]
  quickPredict TI: 513 µM
[2]
  HIT−CALL: 0
  MAX_MEAN: 0.835 Percent Activity
  MAX_MED: 0.894 Percent Activity
[3]
  Classification: Non-Teratogen
[3]; [11]
  DT Class.: Neg
[5]; [13]
  Emax: 6.91%
[5]; [14]
  Emax: 7.1%
[5]; [15]
  Emax: 6.91%
[5]
  Hit Call: Negative
  HIT−CALL: 0
[5]; 48 h exposure
  DevTox ACC: >200 µM
RUES2-GLR cells [6]
  Emax: 11.5%
RUES2-GLR cells [6]; human, 48 h
  Cell Count ACC: >200 µM
H9 embryonic stem cells
  quickPredict CV: 1795 µM
[8]; [18]
  Emax: 8.74%
[8]; [19]
  Emax: 9.69%
[8]
  HIT−CALL: 0
[9]
  MAX_MEAN: 0.533 Percent Activity
  MAX_MED: 0.494 Percent Activity

## CCCC(CCC)C(=O)O [Valproic Acid]
[1]
  quickPredict TI: 155 µM
[2]
  HIT−CALL: 0
  MAX_MEAN: 0.771 Percent Activity
  MAX_MED: 0.815 Percent Activity
[3]
  Development Toxicant Classification: Positive
  Classification: Teratogen
[3]; chemicals common with hPST
  DT Class.: Pos
[3]; [11]
  DT Class.: Pos
[4]
  pIC50: 5.59
[5]
  SOX17 ACC relative to cytotoxic concentration (in words): below cytotoxic concentrations
  Hit Call: Positive
  HIT−CALL: 1
[5]; [12]
  AC50: 124 µM
[5]; [13]
  Emax: 22.3%
[5]; [14]
  Emax: 22%
[5]; [15]
  Emax: 22.3%
[5]; [16]
  AC50: 123 µM
[5]; [17]
  Emax: 29.3%
[5]; 48 h exposure
  DevTox ACC: 177.332 µM
  DevTox-GLR Endo ACC: 177.33 µM
RUES2-GLR cells [6]
  Emax: 18.1%
RUES2-GLR cells [6]; human, 48 h
  Cell Count ACC: >200 µM
[7]
  CC50 at 48 h: > 200 µM
H9 embryonic stem cells
  quickPredict CV: 271 µM
[8]; [18]
  Emax: 7.73%
[8]; [19]
  Emax: 5.59%
[8]
  HIT−CALL: 0
[9]
  MAX_MEAN: 1.25 Percent Activity
  MAX_MED: 0.475 Percent Activity
H9 human ESC line; [20]
  hPST TC50: 3.3 µM
H9 human ESC line; hPST cytotoxicity
  hPST TC50: 3.3 µM
